Laboratory results published in patent publication US12077483B2, “Modified amine lipids” (Intellia Therapeutics, Inc., priority 2018, dated 2024).
Where “and” joins values, the source holds several entries; their conditions need not be identical. Equal values may be shown once.

Assays:
[1] = pKa of amine lipid by TNS fluorescence; type: physicochemical; conditions: probe TNS (6-(p-toluidino)-2-naphthalenesulfonic acid sodium salt), unformulated amine lipid in ethanol, sodium phosphate buffers -9.0
In short: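 Unformulated amine lipid, about 100 μM final, in 0.1 M sodium phosphate buffers spanning pH 4.5–9.0 with TNS. Fluorescence read at ex 321/em 448 nm; normalized data fitted sigmoidally to give pKa.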

[2] = LNP average particle size and polydispersity by dynamic light scattering; type: physicochemical
In short: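 LNPs were diluted in PBS to a count rate of about 200-400 kcps and measured by DLS on a Zetasizer. Size is the intensity-weighted Z-average diameter, reported with number-average diameter, and the polydispersity index describes the spread of sizes around the mean.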

[3] = RNA encapsulation efficiency of LNP (Ribogreen fluorescence assay); type: physicochemical; conditions: for % E: Table 13, LNP sgRNA:Cas9 mRNA 1:2 w/w
In short: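 LNP samples diluted in 1× TE with or without 0.2% Triton-X 100 for total or free RNA, stained ~10 min at room temperature in the dark with RiboGreen; fluorescence ex 488/em 525 nm against RNA standard curves. Encapsulation efficiency = (Total RNA−Free RNA)/Total RNA.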

mouse TTR = assay: Serum TTR ELISA in mice after LNP delivery; type: in vivo
In short: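 Female CD-1 mice received LNP at 0.1 mpk unless noted; serum was collected 6 or 7 days later. Total serum TTR was measured by mouse prealbumin ELISA at 10,000- and/or 2,500-fold dilution and is expressed as a percentage of vehicle control.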

[4] = LNP with the compound as amine lipid, Expt. 3, composition ratio (mol %) 50/9/38/3 for Cmpnd 49, 50/10/38.5/1.5 for the others
[5] = LNP with the compound as amine lipid, Expt. 5, composition ratio (mol %) 50/10/38.5/1.5
[6] = LNP with the compound as amine lipid, Expt. 9, composition ratio (mol %) 50/9/38/3 for Cmpnd 49, 50/10/38.5/1.5 for the others
[7] = Table 10, LNP with G00534 sgRNA:Cas9 mRNA 1:2 w/w
[8] = Table 13, LNP sgRNA:Cas9 mRNA 1:2 w/w, N/P 6.0
[9] = LNP with the compound as amine lipid, Expt. 1, composition ratio (mol %) 50/9/38/3 for Cmpnd 49, 50/10/38.5/1.5 for the others
[10] = Table 3, guide G282, CD-1 female mice, 0.1 mpk i.v., Exp. 1, 8, 9, 10
[11] = Table 3, guide G282, CD-1 female mice, 0.1 mpk i.v., percentage of vehicle control (TSS)
[12] = mouse serum, relative to TSS control of same experiment, dose 0.1 mpk
[13] = Table 6, LNP with G00282 sgRNA:Cas9 mRNA 1:1 w/w
[14] = Table 7, G00282, CD-1 female mice i.v., dose 0.1 mpk
[15] = Table 7, G00282, CD-1 female mice i.v., dose 0.1 mpk, percentage of vehicle control
[16] = Table 7, G00282, CD-1 female mice i.v., dose 0.3 mpk
[17] = Table 7, G00282, CD-1 female mice i.v., dose 0.3 mpk, percentage of vehicle control
[18] = LNP with the compound as amine lipid, Expt. 4, composition ratio (mol %) 50/9/38/3 for Cmpnd 49, 50/10/38.5/1.5 for the others
[19] = Table 4, LNP with G00282 sgRNA:Cas9 mRNA 1:1 w/w, N/P 6.0
[20] = mouse serum, relative to TSS control of same experiment, dose 0.03 mpk
[21] = LNP with the compound as amine lipid, Expt. 8, composition ratio (mol %) 50/9/38/3 for Cmpnd 49, 50/10/38.5/1.5 for the others
[22] = LNP with the compound as amine lipid, Expt. 2, composition ratio (mol %) 50/9/39.5/3 for Cmpnd 49, 50/9/39.5/1.5 for the others
[23] = LNP with the compound as amine lipid, Expt. 6, composition ratio (mol %) 50/9/38/3 for Cmpnd 49, 50/10/38.5/1.5 for the others
[24] = LNP with the compound as amine lipid, Expt. 7, composition ratio (mol %) 50/9/38/3 for Cmpnd 49, 50/10/38.5/1.5 for the others
[25] = LNP with the compound as amine lipid, Expt. 10, composition ratio (mol %) 50/9/38/3 for Cmpnd 49, 50/10/38.5/1.5 for the others

CCCCC/C=C\C/C=C\CCCCCCCC(=O)OCC(COC(=O)CCCCCCC/C=C\C/C=C\CCCCC)OC(=O)CCC(CCCCCC)OC(=O)NCCN1CCCC1 (racemic) [Compound 50, 2-((4-(((2-(pyrrolidin-1-yl)ethyl)carbamoyl)oxy)decanoyl)oxy)propane-1,3-diyl (9Z,9′Z,12Z,12′Z)-bis(octadeca-9,12-dienoate)]
pKa [1]: 6.5 | Num Ave Size (nm) [2, 4]: 76.57 nm | PDI [2, 4]: 0.02 | Z-Ave Size (nm) [2, 4]: 94.33 nm | Num Ave Size (nm) [2, 5]: 77 nm | PDI [2, 5]: 0.06 | Z-Ave Size (nm) [2, 5]: 103.00 nm | Num Ave Size (nm) [2, 6]: 78 nm | PDI [2, 6]: 0.04 | Z-Ave Size (nm) [2, 6]: 98 nm | Num Avg Size (nm) [2, 7]: 79.18 nm | PDI [2, 7]: 0.050 | Z-Avg Size (nm) [2, 7]: 98.55 nm | Number Average [nm] [2, 8]: 84.16 nm | PDI [2, 8]: 0.021 | Z-Ave Size (nm) [2, 8]: 102.8 nm | Encapsulation (%) [3, 4]: 98% | Encapsulation (%) [3, 5]: 98% | Encapsulation (%) [3, 6]: 97% | Encapsulation (%) [3, 7]: 87% | % E ([3]; N/P 6.0): 97% | Serum TTR % TSS (mouse TTR; mouse serum, relative to TSS control of same experiment, dose 0.03 mpk, 0.03 mg/kg): 71.3 % TSS and 45.51 % TSS and 70.1 % TSS

CCCCC/C=C\C/C=C\CCCCCCCC(=O)OCC(COC(=O)CCCCCCC/C=C\C/C=C\CCCCC)OC(=O)CCC(CCCCCCCCCCCC)OC(=O)OCCCN(C)C (centres unmarked) [Compound 1, 2-((4-(((3-(dimethylamino)propoxy)carbonyl)oxy)hexadecanoyl)oxy)propane-1,3-diyl (9Z,9′Z,12Z,12′Z)-bis(octadeca-9,12-dienoate)]
pKa [1]: 6.35 | Num Ave Size (nm) [2, 9]: 54.84 nm | PDI [2, 9]: 0.04 | Z-Ave Size (nm) [2, 9]: 68.63 nm | Encapsulation (%) [3, 9]: 99% | Serum TTR (mouse TTR; [10]): 671 µg/mL | Serum TTR % TSS (mouse TTR; [11]): 76% TSS | Serum TTR % TSS (mouse TTR; [12]): 48.49 % TSS

CCCCC/C=C\C/C=C\CCCCCCCC(=O)OCC(COC(=O)CCCCCCC/C=C\C/C=C\CCCCC)OC(=O)CCC(CCCCCCCCCCCC)OC(=O)OCCCN1CCCC1 (centres unmarked) [Compound 5, 2-((4-(((3-(pyrrolidin-1-yl)propoxy)carbonyl)oxy)hexadecanoyl)oxy)propane-1,3-diyl (9Z,9′Z,12Z,12′Z)-bis(octadeca-9,12-dienoate)]
pKa [1]: 6.25 | Num Ave Size (nm) [2, 13]: 62.64 nm | PDI [2, 13]: 0.009 | Z-Ave Size (nm) [2, 13]: 76.02 nm | Encapsulation (%) [3, 13]: 99% | Serum TTR (mouse TTR; [14]): 549 µg/mL | Serum TTR % TSS (mouse TTR; [15]): 67% TSS | Serum TTR (mouse TTR; [16]): 233 µg/mL | Serum TTR % TSS (mouse TTR; [17]): 28% TSS

CCCCC/C=C\C/C=C\CCCCCCCC(=O)OCC(COC(=O)CCCCCCC/C=C\C/C=C\CCCCC)OC(=O)CCC(CCCCCCCCCCCC)OC(=O)NCCN(C)CC (centres unmarked) [Compound 7, 2-((4-(((2-(ethyl(methyl)amino)ethyl)carbamoyl)oxy)hexadecanoyl)oxy)propane-1,3-diyl (9Z,9′Z,12Z,12′Z)-bis(octadeca-9,12-dienoate)]
pKa [1]: 6.36 | Num Ave Size (nm) [2, 18]: 73.07 nm | PDI [2, 18]: 0.002 | Z-Ave Size (nm) [2, 18]: 87.61 nm | Num Ave Size (nm) [2, 19]: 68.39 nm | PDI [2, 19]: 0.033 | Z-Ave Size (nm) [2, 19]: 85.09 nm | Encapsulation (%) [3, 18]: 98% | Encapsulation (%) [3, 19]: 97% | Serum TTR (mouse TTR; Table 3, guide G282, CD-1 female mice, 0.1 mpk i.v., Exp. 1, 8, 9, 10, 0.1 mg/kg): 270 µg/mL and 271 µg/mL | Serum TTR % TSS (mouse TTR; Table 3, guide G282, CD-1 female mice, 0.1 mpk i.v., percentage of vehicle control (TSS), 0.1 mg/kg): 31% TSS and 33% TSS | Serum TTR % TSS (mouse TTR; [20]): 58% TSS | Serum TTR % TSS (mouse TTR; [12]): 10% TSS

CCCCC/C=C\C/C=C\CCCCCCCC(=O)OCC(COC(=O)CCCCCCC/C=C\C/C=C\CCCCC)OC(=O)CCC(CCCCCCCCCCCC)OC(=O)NCC1CCCN1C (centres unmarked) [Compound 9, 2-((4-((((1-methylpyrrolidin-2-yl)methyl)carbamoyl)oxy)hexadecanoyl)oxy) propane-1,3-diyl (9Z,9′Z,12Z,12′Z)-bis(octadeca-9,12-dienoate)]
pKa [1]: 6.32 | Num Ave Size (nm) [2, 21]: 48.82 nm | PDI [2, 21]: 0.074 | Z-Ave Size (nm) [2, 21]: 64.83 nm | Num Ave Size (nm) [2, 19]: 59.99 nm | PDI [2, 19]: 0.033 | Z-Ave Size (nm) [2, 19]: 74.83 nm | Encapsulation (%) [3, 21]: 98% | Encapsulation (%) [3, 19]: 97% | Serum TTR (mouse TTR; [10]): 339 µg/mL | Serum TTR % TSS (mouse TTR; [11]): 38% TSS | Serum TTR % TSS (mouse TTR; [20]): 114.02 % TSS | Serum TTR % TSS (mouse TTR; [12]): 103.19 % TSS

CCCCC/C=C\C/C=C\CCCCCCCC(=O)OCC(COC(=O)CCC(OCCCCCCCC)OCCCCCCCC)COC(=O)OCCCN(CC)CC (centres unmarked) [Compound 49, 3-((4,4-bis(octyloxy)butanoyl)oxy)-2-((((3-(diethylamino)propoxy)carbonyl)oxy)methyl)propyl (9Z,12Z)-octadeca-9,12-dienoate, reference compound]
Num Ave Size (nm) [2, 9]: 69.84 nm | PDI [2, 9]: 0.05 | Z-Ave Size (nm) [2, 9]: 87.92 nm | Num Ave Size (nm) [2, 22]: 73.13 nm | PDI [2, 22]: 0.014 | Z-Ave Size (nm) [2, 22]: 88.36 nm | Num Ave Size (nm) [2, 4]: 63.19 nm | PDI [2, 4]: 0.03 | Z-Ave Size (nm) [2, 4]: 77.07 nm | Num Ave Size (nm) [2, 18]: 66.26 nm | PDI [2, 18]: 0.026 | Z-Ave Size (nm) [2, 18]: 81.83 nm | Num Ave Size (nm) [2, 5]: 65 nm | PDI [2, 5]: 0.03 | Z-Ave Size (nm) [2, 5]: 83.00 nm | Num Ave Size (nm) [2, 23]: 74 nm | PDI [2, 23]: 0.02 | Z-Ave Size (nm) [2, 23]: 90.00 nm | Num Ave Size (nm) [2, 24]: 63.19 nm | PDI [2, 24]: 0.026 | Z-Ave Size (nm) [2, 24]: 77.07 nm | Num Ave Size (nm) [2, 21]: 69.01 nm | PDI [2, 21]: 0.026 | Z-Ave Size (nm) [2, 21]: 84.47 nm | Num Ave Size (nm) [2, 6]: 70 nm | PDI [2, 6]: 0.04 | Z-Ave Size (nm) [2, 6]: 87 nm | Num Ave Size (nm) [2, 25]: 75 nm | PDI [2, 25]: 0.04 | Z-Ave Size (nm) [2, 25]: 90 nm | Num Ave Size (nm) [2, 19]: 69.51 nm | PDI [2, 19]: 0.007 | Z-Ave Size (nm) [2, 19]: 84.93 nm | Num Ave Size (nm) [2, 13]: 69.75 nm | PDI [2, 13]: 0.011 | Z-Ave Size (nm) [2, 13]: 83.63 nm | Num Avg Size (nm) [2, 7]: 69.85 nm | PDI [2, 7]: 0.028 | Z-Avg Size (nm) [2, 7]: 87.84 nm | Number Average [nm] [2, 8]: 74.82 nm | PDI [2, 8]: 0.015 | Z-Ave Size (nm) [2, 8]: 93.14 nm | Encapsulation (%) [3, 9]: 98% | Encapsulation (%) [3, 22]: 98% | Encapsulation (%) [3, 4]: 93% | Encapsulation (%) [3, 18]: 98% | Encapsulation (%) [3, 5]: 98% | Encapsulation (%) [3, 23]: 99% | Encapsulation (%) [3, 24]: 93% | Encapsulation (%) [3, 21]: 98% | Encapsulation (%) [3, 6]: 98% | Encapsulation (%) [3, 25]: 98% | Encapsulation (%) [3, 19]: 98% | Encapsulation (%) [3, 13]: 99% | Encapsulation (%) [3, 7]: 97% | % E ([3]; N/P 6.0): 98% | Serum TTR (mouse TTR; [14]): 254 µg/mL | Serum TTR % TSS (mouse TTR; [15]): 31% TSS | Serum TTR (mouse TTR; [16]): 40 µg/mL | Serum TTR % TSS (mouse TTR; [17]): 5% TSS
